{"source": "paper PMC5749112", "about": "(The Journal of General Physiology, 2018)", "key": {"PnuTSw": {"biological_target": "T1, PnuTSw (Shewanella woodyi, UniProt B1KPL9)", "T1 sequence (B1KPL9 1-212)": "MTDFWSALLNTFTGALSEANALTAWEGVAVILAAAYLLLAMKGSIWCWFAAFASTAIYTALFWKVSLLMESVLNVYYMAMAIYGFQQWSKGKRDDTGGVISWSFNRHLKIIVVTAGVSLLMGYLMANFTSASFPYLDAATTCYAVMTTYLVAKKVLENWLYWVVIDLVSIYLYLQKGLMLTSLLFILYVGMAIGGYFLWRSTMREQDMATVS", "type": "binding", "details": "for Dissociation constant Kd: WT PnuTSw in DDM, pH 8.0"}, "[1]": {"biological_target": "T2, PnuTSw reconstituted in proteoliposomes (Shewanella woodyi, UniProt B1KPL9)", "T2 sequence (B1KPL9 1-212)": "T1 sequence (B1KPL9 1-212)", "type": "biochemical", "details": "proteoliposomes loaded with 1 mM unlabeled ligand"}, "[2]": {"biological_target": "T2, PnuTSw reconstituted in proteoliposomes", "type": "biochemical", "details": "1 mM unlabeled analogue in outside buffer, 500 nM [3H]thiamine"}, "PnuTSw mutant D166A": {"biological_target": "PnuTSw mutant D166A", "details": "ITC, 25°C"}, "PnuTSw mutant Y159F [3]": {"biological_target": "T3, PnuTSw mutant Y159F (Shewanella woodyi, UniProt B1KPL9, W159F)", "T3 sequence (B1KPL9 1-212 W159F)": "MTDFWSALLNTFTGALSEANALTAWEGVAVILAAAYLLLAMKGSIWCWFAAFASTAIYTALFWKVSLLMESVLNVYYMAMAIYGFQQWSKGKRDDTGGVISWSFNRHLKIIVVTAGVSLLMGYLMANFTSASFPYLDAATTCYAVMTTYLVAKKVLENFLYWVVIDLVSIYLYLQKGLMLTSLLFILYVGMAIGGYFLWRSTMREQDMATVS", "details": "ITC, 25°C"}, "PnuTSw mutant W88A [4]": {"biological_target": "T4, PnuTSw mutant W88A (Shewanella woodyi, UniProt B1KPL9, W88A)", "T4 sequence (B1KPL9 1-212 W88A)": "as the sequence (B1KPL9 1-212 W159F) above, with W88A, F159W counted along it", "details": "proteoliposomes"}, "PnuTSw mutant Y188A [5]": {"biological_target": "T5, PnuTSw mutant Y188A (Shewanella woodyi, UniProt B1KPL9, Y188A)", "T5 sequence (B1KPL9 1-212 Y188A)": "as the sequence (B1KPL9 1-212 W159F) above, with F159W, Y188A counted along it", "test": "biochemical"}, "PnuTSw mutant W199A [6]": {"biological_target": "T6, PnuTSw mutant W199A (Shewanella woodyi, UniProt B1KPL9, W199A)", "T6 sequence (B1KPL9 1-212 W199A)": "as the sequence (B1KPL9 1-212 W159F) above, with F159W, W199A counted along it", "details": "ITC, 25°C"}, "PnuTSw mutant Y77A [7]": {"biological_target": "T7, PnuTSw mutant Y77A (Shewanella woodyi, UniProt B1KPL9, Y77A)", "T7 sequence (B1KPL9 1-212 Y77A)": "as the sequence (B1KPL9 1-212 W159F) above, with Y77A, F159W counted along it", "test": "biochemical"}, "PnuTSw mutant W199A [8]": {"biological_target": "T6, PnuTSw mutant W199A", "test": "biochemical"}, "PnuTSw mutant Y77A [9]": {"biological_target": "T7, PnuTSw mutant Y77A", "details": "ITC, 25°C"}, "PnuTSw mutant Y159F [10]": {"biological_target": "T3, PnuTSw mutant Y159F", "test": "biochemical"}, "PnuTSw mutant Y162F [11]": {"biological_target": "T8, PnuTSw mutant Y162F (Shewanella woodyi, UniProt B1KPL9, W162F)", "T8 sequence (B1KPL9 1-212 W162F)": "as the sequence (B1KPL9 1-212 W159F) above, with F159W, W162F counted along it", "test": "biochemical"}, "PnuTSw mutant Y162F [12]": {"biological_target": "T8, PnuTSw mutant Y162F", "details": "ITC, 25°C"}, "PnuTSw mutant W88A [13]": {"biological_target": "T4, PnuTSw mutant W88A", "test": "biochemical"}, "PnuTSw mutant Y188A [14]": {"biological_target": "T5, PnuTSw mutant Y188A", "details": "ITC, 25°C"}, "PnuTSw mutant W88A [15]": {"biological_target": "T4, PnuTSw mutant W88A", "details": "ITC, 25°C"}}, "note": "Entries after “also recorded” stand apart in the source; their conditions may differ. Where two headings read alike, the source gives them in different places.", "data": [{"smiles": "Cc1ncc(C[n+]2csc(CCOP(=O)(O)O)c2C)c(N)n1", "note": "[TMP, thiamine monophosphate]", "values": [{"measurement": "Dissociation constant Kd", "setting": "PnuTSw; ITC, 25°C", "result": "binding could not be detected; also recorded: neither TMP nor TPP could bind; also recorded: No binding"}, {"measurement": "Counter flow of [3H]thiamine (transported substrate or not)", "setting": "[1]", "result": "did not trigger accumulation of the label"}, {"measurement": "Inhibition of [3H]thiamine uptake", "setting": "[2]", "result": "did not inhibit transport"}]}, {"smiles": "Cc1ncc(C[n+]2csc(CCO[P@](=O)(O)OP(=O)(O)O)c2C)c(N)n1", "note": "[TPP, thiamine pyrophosphate]", "values": [{"measurement": "Dissociation constant Kd", "setting": "PnuTSw; ITC, 25°C", "result": "binding could not be detected; also recorded: neither TMP nor TPP could bind; also recorded: No binding"}, {"measurement": "Counter flow of [3H]thiamine (transported substrate or not)", "setting": "[1]", "result": "did not trigger accumulation of the label"}, {"measurement": "Inhibition of [3H]thiamine uptake", "setting": "[2]", "result": "did not inhibit transport"}]}, {"smiles": "Cc1ncc(C[n+]2csc(CCO)c2C)c(N)n1", "note": "[Thiamine, thiamine]", "values": [{"measurement": "Kd", "setting": "PnuTSw", "result": "12 ± 5", "unit": "µM"}, {"measurement": "ΔH", "setting": "PnuTSw; ITC, 25°C, WT PnuTSw", "result": "-6.45 ± 5.26", "unit": "kcal/mol"}, {"measurement": "ΔS", "setting": "PnuTSw; ITC, 25°C, WT PnuTSw", "result": "5 ± 71", "unit": "J/mol/K"}, {"measurement": "Dissociation constant Kd", "setting": "PnuTSw mutant D166A", "result": "could not be detected"}, {"measurement": "Dissociation constant Kd", "setting": "PnuTSw mutant D166A; listed as thiamine", "result": "No binding"}, {"measurement": "Dissociation constant Kd", "setting": "PnuTSw mutant Y159F [3]", "result": "neither of the mutations affected thiamine binding"}, {"measurement": "Thiamine transport activity of mutant", "setting": "PnuTSw mutant W88A [4]", "result": "unable to transport thiamine"}, {"measurement": "Kd", "setting": "PnuTSw mutant Y188A [5]", "result": "21 ± 2", "unit": "µM"}, {"measurement": "Dissociation constant Kd", "setting": "PnuTSw mutant W199A [6]", "result": "did not affect the binding of thiamine"}, {"measurement": "Kd", "setting": "PnuTSw mutant Y77A [7]", "result": "17 ± 2", "unit": "µM"}, {"measurement": "Kd", "setting": "PnuTSw mutant W199A [8]", "result": "12 ± 1", "unit": "µM"}, {"measurement": "Dissociation constant Kd", "setting": "PnuTSw mutant Y77A [9]", "result": "did not affect the binding of thiamine"}, {"measurement": "Kd", "setting": "PnuTSw mutant Y159F [10]", "result": "23 ± 2", "unit": "µM"}, {"measurement": "Kd", "setting": "PnuTSw mutant Y162F [11]", "result": "26 ± 3", "unit": "µM"}, {"measurement": "Dissociation constant Kd", "setting": "PnuTSw mutant Y162F [12]", "result": "neither of the mutations affected thiamine binding"}, {"measurement": "Kd", "setting": "PnuTSw mutant W88A [13]", "result": "13 ± 2", "unit": "µM"}, {"measurement": "Dissociation constant Kd", "setting": "PnuTSw mutant Y188A [14]", "result": "did not affect the binding of thiamine"}, {"measurement": "Dissociation constant Kd", "setting": "PnuTSw mutant W88A [15]", "result": "did not affect the binding of thiamine"}]}]}
